Here are results for four molecules from US20060094763A1, “Polymorphic forms of 6-[2-(methylcarbomoyl) phenyl sulfanyl]-3-E-[2-(pyridin-2-yl)ethenyl]indazole” (Agouron Pharmaceuticals, Inc., priority 2004, published 2006).

≈ marks a conversion by molar mass, not a printed value.

Data set [1] is described as follows: Human metabolites of Compound 1. The note with it: in vivo. The source says: The chemical structures of three oxygenated metabolites, M12 (the sulfoxide of Compound 1), M15 (the sulfone of Compound 1) and M9 (a mixed sulfoxidized/N-oxidized product of Compound 1), were confirmed based on the comparison in chromatographic retention times and mass spectra of the in-vivo metabolites to their authentic reference standards. The chemical structure of the glucuronide (M7) of Compound 1 was confirmed by the isolation of the metabolite followed by NMR determination. […] The proposed structures (or elemental compositions) of M5 and its major fragment ions (m/z 342, 311, 265, and 237) were all highly consistent with the elemental compositions determined by accurate mass measurement (with mass measurement accuracy ≦1.2 ppm for all). The definitive structures of metabolites M8a, M12a and M14 are currently unknown.

Data set [2] in a line: Aqueous solubility of polymorphic forms of Compound 1. It is filed as physicochemical. The conditions noted are these: for solubility: aqueous medium.
Data set [3] can be described thus: Physical and chemical storage stability of polymorphic forms (heat, humidity). The note with it: for Time stable: 40° C. under 75% relative humidity.
Data set [4] is described as follows: Salt screening: solubility of in situ acid salts of Compound 1 in 100 mM acid solutions (HPLC). The conditions noted are these: 100 mM acid solution, excess solid. On the procedure:
To ensure that the maximum solubility level was reached, the samples were checked periodically to ensure that excess solid was present. After 8 days 400 μL of the mixture was removed and centrifuged at 14,000 rpm for 5 minutes. 100 μL of the supernatant was then removed, diluted with 900 μL of a 1:1 mixture of acetonitrile/methanol, and then analyzed by HPLC.

For the molecule `CNC(=O)c1ccccc1Sc1ccc2c(/C=C/c3ccccn3)n[nH]c2c1` [Compound 1, 6-[2-(methylcarbamoyl)phenylsulfanyl]-3-E-[2-(pyridin-2-yl)ethenyl]indazole], in data set [1], the Metabolism in humans entry was “extensive metabolism”.
As for `CNC(=O)c1ccccc1Sc1ccc2c(/C=C/c3ccccn3)n[nH]c2c1` [Form I, 6-[2-(methylcarbamoyl)phenylsulfanyl]-3-E-[2-(pyridin-2-yl)ethenyl]indazole], the solubility in data set [2] (pH 2, simulated gastric fluid, pH 2) is 179 µg/mL (≈ 463 µM). For the same molecule, the Aqueous solubility in data set [2] (pH 6.5) stood at 9 µg/mL. The Time stable result in data set [3] was “at least 13 days”. In data set [3] (80° C.), the Chemical stability result is recorded as “chemically stable”.
For the molecule `CNC(=O)c1ccccc1Sc1ccc2c(/C=C/c3ccccn3)n[nH]c2c1` [Form IV, 6-[2-(methylcarbamoyl)phenylsulfanyl]-3-E-[2-(pyridin-2-yl)ethenyl]indazole], the solubility in data set [2] (pH 1, simulated gastric fluid, pH 1) was about 550 µg/mL (≈ 1420 µM); in data set [2] (pH 4, aqueous buffer, pH 4), about 6 µg/mL (≈ 15.5 µM); in data set [2] (pH 8, aqueous buffer, pH 8) it was about 2 µg/mL (≈ 5.17 µM). Further, the Aqueous solubility entry in data set [2] (pH 2) is “about 157 μg/mL”; in data set [2] (pH 6.5), “about 2 μg/mL”. Besides, in data set [3], the Time stable result is “at least 30 days”. Besides, the “Time physically and chemically stable” value in data set [3] (80° C.) is recorded as “at least 30 days”.
For the molecule Benzene sulfonic acid, in data set [4] (stirred 8 days in the dark), the “Solubility 8 days” value came out at 10 µg/mL. The “Solubility 14 days” value in data set [4] (stirred 14 days in the dark) came out at 11 µg/mL.
